Experiments:
[1] = biological target: T1, Progesterone receptor (Homo sapiens) (UniProt P06401); assay: Activation of progesterone receptor in human T47D cells after 20 hrs by PRE-tagged luciferase reporter gene assay relative to control; assay type: cell-based
T1 sequence (whole entry): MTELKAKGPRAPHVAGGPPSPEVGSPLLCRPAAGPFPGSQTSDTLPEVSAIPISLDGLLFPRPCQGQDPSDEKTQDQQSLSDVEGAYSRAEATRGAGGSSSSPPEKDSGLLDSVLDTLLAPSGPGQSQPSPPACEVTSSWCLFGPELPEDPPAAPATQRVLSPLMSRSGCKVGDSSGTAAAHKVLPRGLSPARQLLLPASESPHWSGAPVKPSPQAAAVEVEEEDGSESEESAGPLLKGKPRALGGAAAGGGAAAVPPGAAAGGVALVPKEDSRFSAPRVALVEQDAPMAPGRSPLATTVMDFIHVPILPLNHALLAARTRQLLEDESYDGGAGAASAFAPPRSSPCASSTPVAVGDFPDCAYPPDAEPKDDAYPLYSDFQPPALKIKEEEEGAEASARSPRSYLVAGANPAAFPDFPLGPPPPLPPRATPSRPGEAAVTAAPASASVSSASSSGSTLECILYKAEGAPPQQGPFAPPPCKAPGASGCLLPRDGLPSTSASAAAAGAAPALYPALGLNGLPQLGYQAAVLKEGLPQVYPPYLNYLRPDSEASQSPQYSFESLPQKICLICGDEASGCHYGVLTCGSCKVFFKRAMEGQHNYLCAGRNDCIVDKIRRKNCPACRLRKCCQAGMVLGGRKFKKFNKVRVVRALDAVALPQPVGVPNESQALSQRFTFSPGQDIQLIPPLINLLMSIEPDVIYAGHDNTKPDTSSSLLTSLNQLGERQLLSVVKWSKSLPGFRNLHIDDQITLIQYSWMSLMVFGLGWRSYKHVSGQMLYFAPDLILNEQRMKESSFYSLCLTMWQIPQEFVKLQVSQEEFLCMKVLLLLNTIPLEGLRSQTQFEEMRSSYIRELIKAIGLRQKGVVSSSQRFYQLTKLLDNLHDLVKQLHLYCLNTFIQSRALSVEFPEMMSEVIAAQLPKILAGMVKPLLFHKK

[2] = biological target: T2, Androgen receptor (Homo sapiens, UniProt P10275); assay: Agonist activity at androgen receptor ligand binding domain expressed in african green monkey COS7 cells co-transfected with Gal4-DBD up to 10 uM by luciferase reporter gene assay; assay type: cell-based; conditions: cos-7
T2 sequence (P10275 whole entry): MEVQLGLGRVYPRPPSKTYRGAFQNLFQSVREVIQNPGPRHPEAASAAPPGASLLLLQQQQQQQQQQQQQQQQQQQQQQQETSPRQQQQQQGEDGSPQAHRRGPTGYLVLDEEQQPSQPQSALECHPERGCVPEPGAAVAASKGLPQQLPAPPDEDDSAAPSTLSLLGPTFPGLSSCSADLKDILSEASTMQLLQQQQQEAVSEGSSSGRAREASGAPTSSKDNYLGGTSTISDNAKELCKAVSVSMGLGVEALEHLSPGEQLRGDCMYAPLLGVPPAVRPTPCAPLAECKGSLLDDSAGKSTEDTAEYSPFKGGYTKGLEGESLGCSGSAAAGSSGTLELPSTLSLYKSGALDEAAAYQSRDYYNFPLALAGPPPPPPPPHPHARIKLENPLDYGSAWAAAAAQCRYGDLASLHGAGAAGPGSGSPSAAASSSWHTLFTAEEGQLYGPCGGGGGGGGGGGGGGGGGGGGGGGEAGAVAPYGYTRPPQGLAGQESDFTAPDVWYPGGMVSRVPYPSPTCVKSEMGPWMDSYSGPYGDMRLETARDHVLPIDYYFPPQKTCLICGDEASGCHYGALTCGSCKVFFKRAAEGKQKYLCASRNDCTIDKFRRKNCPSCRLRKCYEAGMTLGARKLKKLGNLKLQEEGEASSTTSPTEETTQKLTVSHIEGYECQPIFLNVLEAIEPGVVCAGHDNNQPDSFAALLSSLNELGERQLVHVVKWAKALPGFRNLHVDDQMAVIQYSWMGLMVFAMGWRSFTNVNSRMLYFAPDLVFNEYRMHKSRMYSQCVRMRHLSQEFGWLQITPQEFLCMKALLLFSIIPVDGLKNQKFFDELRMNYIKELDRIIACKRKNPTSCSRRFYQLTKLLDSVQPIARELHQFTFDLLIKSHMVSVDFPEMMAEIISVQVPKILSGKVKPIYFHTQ

[3] = biological target: T3, Mineralocorticoid receptor (Homo sapiens, UniProt P08235)
T3 sequence (P08235 whole entry): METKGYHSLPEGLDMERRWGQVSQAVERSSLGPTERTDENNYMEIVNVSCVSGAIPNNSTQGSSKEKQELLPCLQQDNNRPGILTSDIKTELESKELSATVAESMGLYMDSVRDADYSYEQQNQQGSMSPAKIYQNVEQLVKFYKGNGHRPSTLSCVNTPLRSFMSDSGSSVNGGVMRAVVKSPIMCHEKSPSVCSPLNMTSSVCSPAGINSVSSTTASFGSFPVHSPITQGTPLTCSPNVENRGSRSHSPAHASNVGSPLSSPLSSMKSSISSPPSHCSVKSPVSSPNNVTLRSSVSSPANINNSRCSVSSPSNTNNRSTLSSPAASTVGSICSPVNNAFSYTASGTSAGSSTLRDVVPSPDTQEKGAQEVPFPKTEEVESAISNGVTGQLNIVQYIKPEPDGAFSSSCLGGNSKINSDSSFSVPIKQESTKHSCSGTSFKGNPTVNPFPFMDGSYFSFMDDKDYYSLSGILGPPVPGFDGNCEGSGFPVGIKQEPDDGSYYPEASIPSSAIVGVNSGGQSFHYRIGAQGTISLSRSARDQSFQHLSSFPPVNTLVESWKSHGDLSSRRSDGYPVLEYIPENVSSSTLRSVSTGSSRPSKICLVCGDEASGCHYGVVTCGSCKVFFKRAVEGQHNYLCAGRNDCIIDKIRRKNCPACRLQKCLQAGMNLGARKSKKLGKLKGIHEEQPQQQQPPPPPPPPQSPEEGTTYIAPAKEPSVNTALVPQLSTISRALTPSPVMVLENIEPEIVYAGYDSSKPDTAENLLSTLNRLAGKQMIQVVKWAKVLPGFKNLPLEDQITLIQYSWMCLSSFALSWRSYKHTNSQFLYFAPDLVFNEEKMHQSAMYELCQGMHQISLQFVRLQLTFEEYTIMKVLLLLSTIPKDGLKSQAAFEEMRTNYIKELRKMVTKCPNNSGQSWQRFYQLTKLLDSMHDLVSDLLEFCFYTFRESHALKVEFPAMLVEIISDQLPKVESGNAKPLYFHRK
Description: Antagonist activity at mineralocorticoid receptor ligand binding domain expressed in african green monkey COS7 cells co-transfected with Gal4-LBD by luciferase reporter gene assay

SMILES: CC1(C)[C@H](O)CC[C@]2(C)[C@@]3(C)c4[nH]c5ccccc5c4C[C@@H]3CC[C@@]12O [LECANINDOLE D]
- Efficacy [1]: 68%
- EC50 [2]: Not Active
- IC50 [3]: > 3 mM

SMILES: CC1(C)C(=O)CC[C@]2(C)[C@@]3(C)c4[nH]c5ccccc5c4C[C@@H]3CC[C@@]12O [LECANINDOLE B]
- Efficacy [1]: < 1%
- EC50 [2]: Not Active
- IC50 [3]: > 10 mM

Source: ChEMBL document CHEMBL1154793, “The lecanindoles, nonsteroidal progestins from the terrestrial fungus Verticillium lecanii 6144” (J Nat Prod, 2009)
